Test results as given in publication PMC9654533, “Potent Alkaline Phosphatase Inhibitors, Pyrazolo-Oxothiazolidines: Synthesis, Biological Evaluation, Molecular Docking, and Kinetic Studies” (International Journal of Molecular Sciences, 2022).
Entries after “also recorded” stand apart in the source; their conditions may differ.

Legend:
[1] = target: T1, calf intestinal alkaline phosphatase (CIAP) (Bos taurus, UniProt P19111); assay: Alkaline phosphatase inhibition assay (spectrophotometric, p-NPP substrate); type: biochemical; details: for IC50: CIAP, p-NPP substrate, pH 9.5, 37 °C, mean ± SEM
Procedure: As previously mentioned, spectrophotometric analysis was used to evaluate the activity of calf intestinal alkaline phosphatase (CIAP). The reaction mixture contained 50 mM Tris-HCl buffer (5 mM MgCl2, 0.1 mM ZnCl2 pH 9.5), the 10 µL compound, and it was preincubated for 10 min by adding 5 µL of CIAP (0.025 U/mL). Then, 10 µL of a substrate (0.5 mM p-NPP (para nitrophenyl phosphate disodium salt)) was delivered to initiate the response, and therefore the assay mixture became incubated once more for 30 min at 37 °C. The change in absorbance of released p-nitrophenolate was monitored at 405 nm, using a 96-well microplate reader (Thermo Scientific Multiskan GO, USA). All the experiments were repeated three times in a triplicate manner. […] The inhibition activity was calculated according to the following equation: Inhibition (%)=[(Blank−Sample)/Blank]×100
For calculation of the IC50 values, 6–8 serial dilutions were used and the results examined using the non-linear regression analysis of GraphPad Prism 5 [69].

ALP = ALP inhibitors; cited from earlier work
[2] = test system: tissue-specific isozymes (PLALP, GCALP, and IALP) versus L/B/K ALPs; parameters: method as in PMID 2178806; details: cited from earlier work
MTT cell viability assay = type: cell-based; details: human, MG-63 osteosarcoma cells, MG-63 cells
Procedure: The human osteosarcoma MG-63 cells were acquired from the Korean Cell Line Bank (Seoul, Korea). The MG-63 cell lines were incubated in the humidified atmosphere at 37 °C containing 5% CO2 and maintained in the DMEM (Sigma, St. Louis, MO, USA), supplemented with 10% fetal bovine serum (FBS, WELGENE, Korea) and 50 unit/mL penicillin (Sigma) and 50 μg/mL streptomycin (Sigma). The medium was completely renewed every two days. The synthesized compounds were completely dissolved in dimethyl sulfoxide (DMSO) and further diluted to various concentrations (0, 0.5, 1, 2, and 4 µM). The control groups were treated with the same amount of DMSO. MTT assay technique was applied to check the toxic effect of our compounds. The MG-63 cell lines were seeded onto 96-well plates at a density of 0.4 × 10^5 cells/well with the medium for 24 h. After reaching 50% density, the cells were exposed to synthesized target compounds at the dose of 0, 0.5, 1, 2, and 4 µM for 24 h in media. […] After 24 h, the cell sustained 100 μL DMEM containing of 0.5 mg/mL 3-(4,5-dimethylthiazol-2-yl)-2,5-diphenyltetrazolium bromide (MTT) at 37 °C for 4 h. Then, the purple formazan crystals were dissolved with 100 μL of buffer (10% SDS, 0.01 N HCl). Finally, the absorbance was measured at 570 nm using a microplate reader (Thermo Fisher, Waltham, MA, USA).

[3] = DPPH free radical scavenging assay; details: 100 µg/mL
Procedure: Free radical scavenging activity was determined by modifying the method by DPPH assay. The assay solution composed of the 100 μL of DPPH (150 μM) and 20 μL of the sample (100 μg/mL) was introduced to gain the final volume of each well up to 200 μL with methyl alcohol. Then, it was incubated in the dark at room temperature for the following half-hour. Ascorbic acid (Vitamin C) was used as a reference inhibitor. The measurements were performed by using a microplate reader (Thermo Scientific Multiskan GO, USA) at 517 nm. Each experiment was carried out in triplicate.

[4] = target: T1, calf intestinal alkaline phosphatase (CIAP); assay: Kinetic mechanism analysis (Lineweaver-Burk plot); type: biochemical
Procedure: The inhibitor (7g), and substrate p-NPP concentrations were used at 0.00, 0.023, 0.045 and 0.091 µM, 10, 5, 2.5, 1.25, 0.625 and 0.3125 mM, respectively. The pre-incubation time and other conditions were the same as those mentioned in the section on the CIAP assay. Maximal initial velocities were determined from the initial linear portion of absorbances up to 10 min after the addition of enzyme per minute interval. The inhibition type of the enzyme was assayed by the Lineweaver–Burk plot of inverse velocities (1/V) versus the inverse of substrate concentration 1/[S] mM^−1. The EI dissociation constant Ki was determined by a secondary plot of 1/V versus inhibitor concentration.

T1 sequence (P19111 20-533): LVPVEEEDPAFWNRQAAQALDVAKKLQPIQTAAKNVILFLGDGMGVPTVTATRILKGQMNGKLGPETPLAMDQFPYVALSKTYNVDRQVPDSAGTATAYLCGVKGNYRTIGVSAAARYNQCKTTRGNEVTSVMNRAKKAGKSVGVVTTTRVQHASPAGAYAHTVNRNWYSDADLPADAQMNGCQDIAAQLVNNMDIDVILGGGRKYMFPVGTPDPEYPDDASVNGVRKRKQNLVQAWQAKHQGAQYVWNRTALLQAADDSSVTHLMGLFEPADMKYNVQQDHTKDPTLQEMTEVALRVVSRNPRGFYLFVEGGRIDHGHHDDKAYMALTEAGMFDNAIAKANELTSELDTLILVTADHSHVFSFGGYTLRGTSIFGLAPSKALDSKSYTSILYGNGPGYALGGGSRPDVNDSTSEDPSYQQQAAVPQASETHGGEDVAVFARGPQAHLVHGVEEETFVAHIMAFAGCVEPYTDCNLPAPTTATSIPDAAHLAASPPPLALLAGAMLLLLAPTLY

Structure (SMILES)	melting point	IC50 [1]	also measured
CCOC(=O)C=C1SC(N2N=C(c3ccccc3)CC2c2ccc(C)cc2)=NC1=O (stereo not drawn) [Compound 7b, Ethyl-2-(4-oxo-2-(3-phenyl-5-(p-tolyl)-4,5-dihydro-1H-pyrazol-1-yl)thiazol-5(4H)-ylidene)acetate]	226 to 228 °C	2300 ± 151 nM	–
CCOC(=O)C=C1SC(N2N=C(c3ccccc3)CC2c2ccccc2)=NC1=O (stereo not drawn) [Compound 7n, Ethyl-2-(2-(3,5-diphenyl-4,5-dihydro-1H-pyrazol-1-yl)-4-oxothiazol-5(4H)-ylidene)acetate]	216 to 218 °C	2990 ± 734 nM	–
Cn1c(=O)c2[nH]cnc2n(C)c1=O [theophylline]	–	–	Ki (ALP): 82000 nM
N[C@@H](Cc1ccccc1)C(=O)O [L-phenylalanine]	–	–	sensitivity of inhibition of tissue-specific isozymes (PLALP, GCALP, IALP) relative to L/B/K ALPs [2]: 30 times
CCOC(=O)C=C1SC(N2N=C(c3ccccc3)CC2c2ccc(OCc3ccccc3)c(OC)c2)=NC1=O (stereo not drawn) [Compound 7d, Ethyl-2-(2-(5-(4-(benzyloxy)-3-methoxyphenyl)-3-phenyl-4,5-dihydro-1H-pyrazol-1-yl)-4-oxothiazol-5(4H)-ylidene)acetate]	202 to 204 °C	293 ± 39 nM	–
CCOC(=O)C=C1SC(N2N=C(c3ccc(OC)cc3)CC2c2ccc(Cl)cc2Cl)=NC1=O (stereo not drawn) [Compound 7f, Ethyl-2-(2-(5-(2,4-dichlorophenyl)-3-(4-methoxyphenyl)-4,5-dihydro-1H-pyrazol-1-yl)-4-oxothiazol-5(4H)-ylidene)acetate]	> 260 °C	566 ± 48 nM	–
C#Cc1cccc(Nc2ncnc3cc(OCCOC)c(OCCOC)cc23)c1 [erlotinib, reference compound]	–	–	viability at 24 h, 2 µM (MTT cell viability assay; first three treatments (0.5, 1, 2 µM)): > 90%
CCOC(=O)C=C1SC(N2N=C(c3ccc(OC)cc3)CC2c2ccc(Br)cc2)=NC1=O (stereo not drawn) [Compound 7h, Ethyl-2-(2-(5-(4-bromophenyl)-3-(4-methoxyphenyl)-4,5-dihydro-1H-pyrazol-1-yl)-4-oxothiazol-5(4H)-ylidene)acetate]	218 to 220 °C	907 ± 41 nM	–
CCOC(=O)C=C1SC(N2N=C(c3ccc(OC)cc3)CC2c2ccc(Cl)cc2)=NC1=O (stereo not drawn) [Compound 7m, Ethyl-2-(2-(5-(4-chlorophenyl)-3-(4-methoxyphenyl)-4,5-dihydro-1H-pyrazol-1-yl)-4-oxothiazol-5(4H)-ylidene)acetate]	220 to 222 °C	302 ± 4 nM	viability at 24 h, 4 µM (MTT cell viability assay): ≤ 70%
CCOC(=O)C=C1SC(N2N=C(c3ccc(OC)cc3)CC2c2ccc(F)cc2)=NC1=O (stereo not drawn) [Compound 7i, Ethyl-2-(2-(5-(4-fluorophenyl)-3-(4-methoxyphenyl)-4,5-dihydro-1H-pyrazol-1-yl)-4-oxothiazol-5(4H)-ylidene)acetate]	210 to 212 °C	315 ± 17 nM	–
c1ccc([C@H]2CN3CCSC3=N2)cc1 [levamisole]	–	–	Ki (ALP): 16000 nM
CCOC(=O)C=C1SC(N2N=C(c3ccc(OC)cc3)CC2c2ccccc2)=NC1=O (stereo not drawn) [Compound 7j, Ethyl-2-(2-(3-(4-methoxyphenyl)-5-phenyl-4,5-dihydro-1H-pyrazol-1-yl)-4-oxothiazol-5(4H)-ylidene)acetate]	167 to 169 °C	434 ± 11 nM	viability at 24 h, 4 µM (MTT cell viability assay): ≤ 70%

Continued by falling IC50 [1], values first:

melting point	IC50 [1]	Structure (SMILES)	also measured
208 to 210 °C	228 ± 12 nM	CCOC(=O)C=C1SC(N2N=C(c3ccc(OC)cc3)CC2c2ccc(C)cc2)=NC1=O (stereo not drawn) [Compound 7e, Ethyl-2-(2-(3-(4-methoxyphenyl)-5-(p-tolyl)-4,5-dihydro-1H-pyrazol-1-yl)-4-oxothiazol-5(4H)-ylidene)acetate]	viability at 24 h, 4 µM (MTT cell viability assay): ≤ 70%
236 to 238 °C	198 ± 18 nM	CCOC(=O)C=C1SC(N2N=C(c3ccccc3)CC2c2ccc(OC)cc2)=NC1=O (stereo not drawn) [Compound 7c, Ethyl-2-(2-(5-(4-methoxyphenyl)-3-phenyl-4,5-dihydro-1H-pyrazol-1-yl)-4-oxothiazol-5(4H)-ylidene)acetate]	–
208 to 210 °C	75 ± 5 nM	CCOC(=O)C=C1SC(N2N=C(c3ccc(OC)cc3)CC2c2ccc(OC)cc2)=NC1=O (stereo not drawn) [Compound 7k, Ethyl-2-(2-(3,5-bis(4-methoxyphenyl)-4,5-dihydro-1H-pyrazol-1-yl)-4-oxothiazol-5(4H)-ylidene)acetate]	–
242 to 244 °C	53 ± 1 nM	CCOC(=O)C=C1SC(N2N=C(c3ccccc3)CC2c2ccc(Br)cc2)=NC1=O (stereo not drawn) [Compound 7a, Ethyl-2-(2-(5-(4-bromophenyl)-3-phenyl-4,5-dihydro-1H-pyrazol-1-yl)-4-oxothiazol-5(4H)-ylidene)acetate]	–
251 to 253 °C	51 ± 19 nM	CCOC(=O)C=C1SC(N2N=C(c3ccccc3)CC2c2ccc(Cl)cc2)=NC1=O (stereo not drawn) [Compound 7l, Ethyl-2-(2-(5-(4-chlorophenyl)-3-phenyl-4,5-dihydro-1H-pyrazol-1-yl)-4-oxothiazol-5(4H)-ylidene)acetate]	–
228 to 230 °C	45 ± 4 nM	CCOC(=O)C=C1SC(N2N=C(c3ccc(OC)cc3)CC2c2ccc(OCc3ccccc3)c(OC)c2)=NC1=O (stereo not drawn) [Compound 7g, Ethyl-2-(2-(5-(4-(benzyloxy)-3-methoxyphenyl)-3-(4-methoxyphenyl)-4,5-dihydro-1H-pyrazol-1-yl)-4-oxothiazol-5(4H)-ylidene)acetate]	DPPH free radical scavenging (inhibition) [3]: 29.7%; fold more active than monopotassium phosphate (IC50 ratio) ([1]; versus standard reference monopotassium phosphate): 116 fold; Inhibition Type ([4]; Lineweaver-Burk plot, substrate p-NPP): non-competitively; also recorded: Non-Competitive; Vmax ([4]; inhibitor 7g concentration 0.023 µM): 0.0014 ΔA/Min; Vmax ([4]; inhibitor 7g concentration 0.045 µM): 0.0011 ΔA/Min; Vmax ([4]; inhibitor 7g concentration 0.091 µM): 0.0009 ΔA/Min; Ki ([4]; secondary plot of slope versus inhibitor concentration, read-out: Ki (EI dissociation constant)): 93 nM; Km ([4]; substrate p-NPP, inhibitor 7g concentration 0.023 µM): 500 µM; Km ([4]; substrate p-NPP, inhibitor 7g concentration 0.045 µM): 500 µM; Km ([4]; substrate p-NPP, inhibitor 7g concentration 0.091 µM): 500 µM
